Assay results reported in patent US10793885B2, “Compositions and methods for making noscapine and synthesis intermediates thereof” (priority 2013, dated 2020).

Assays:
CXE1 = molecular target: T1, CXE1 (Papaver somniferum, UniProt I3PLR2); assay: In vitro CXE1 assay with purified recombinant protein; format: biochemical; conditions: native recombinant CXE1, pH 8.0, 30° C., 15 min
T1 construct: corresponding open reading frames were amplified using cDNA derived from total stem RNA of the Bea's Choice chemotype; His-tag (pRSETA leader) (N); made in house; host or cells: Escherichia coli Rosetta (DE3) pLysS
T1 sequence (I3PLR2 1-320): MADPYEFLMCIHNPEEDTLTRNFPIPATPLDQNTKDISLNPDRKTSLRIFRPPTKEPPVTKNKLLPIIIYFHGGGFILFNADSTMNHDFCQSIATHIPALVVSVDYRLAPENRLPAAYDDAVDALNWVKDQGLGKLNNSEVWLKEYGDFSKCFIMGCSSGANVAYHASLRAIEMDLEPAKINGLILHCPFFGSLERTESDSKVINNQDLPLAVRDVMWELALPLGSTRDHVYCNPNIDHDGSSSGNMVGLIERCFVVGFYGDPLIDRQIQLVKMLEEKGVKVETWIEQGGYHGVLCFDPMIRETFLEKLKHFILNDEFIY
From the text: (§1) The full-length coding region of CYP82X1 was amplified using cDNA derived from total stem RNA of the Bea's Choice chemotype using Takara Ex Taq DNA polymerase (Fisher Scientific, Ottawa, Canada), and using a primer 5′-[…]-3′ (SEQ ID NO: 607) and reverse primer 5′-[…]-3′ (SEQ ID NO: 608). Owing to problems with heterologous expression in yeast, CYP82X2 was synthesized with the first 60 N-terminal amino acids replaced with the first 43 N-terminal amino acids from the lettuce cytochrome P450 germacrene A oxidase Nguyen, D. T. et al. J. Biol. Chem. 285, 16588-16598 (2010). For heterologous expression of Flag-tagged CYPs in yeast (Saccharomyces cerevisiae), the full-length coding regions of CYP82X1 and CYP82X2 were inserted into the NotI and SpeI restriction sites of the dual plasmid pESC-leu2d::CPR Ro, D.-K., Ouellet, M., Paradise, E. M., Burd, H., Eng, D., Paddon, C. J., Newman, J. D., & Keesling, J. D. BMC Biotech. […] For heterologous expression of CXE1, CXE2, and AT1, corresponding open reading frames were amplified using cDNA derived from total stem RNA of the Bea's Choice chemotype and cloned in-frame an N-terminal His-tag sequence in the Escherichia coli expression vector pRSETA (Invitrogen, Carlsbad, Calif.). […] Microsomal fractions containing recombinant CYP82X1 or CYP82X2 were detected using a-FLAG antibodies, whereas recombinant CPR was detected using α-c-Myc antibodies (FIG. 12 A). […]

CXE2 = molecular target: T2, CXE2 (Papaver somniferum, UniProt A0A0A1EQ07); assay: In vitro CXE2 assay with purified recombinant protein; format: biochemical; conditions: E. coli produced CXE2
T2 construct: corresponding open reading frames were amplified using cDNA derived from total stem RNA of the Bea's Choice chemotype; His-tag (pRSETA leader) (N); made in house; host or cells: Escherichia coli Rosetta (DE3) pLysS
T2 sequence (A0A0A1EQ07 1-313): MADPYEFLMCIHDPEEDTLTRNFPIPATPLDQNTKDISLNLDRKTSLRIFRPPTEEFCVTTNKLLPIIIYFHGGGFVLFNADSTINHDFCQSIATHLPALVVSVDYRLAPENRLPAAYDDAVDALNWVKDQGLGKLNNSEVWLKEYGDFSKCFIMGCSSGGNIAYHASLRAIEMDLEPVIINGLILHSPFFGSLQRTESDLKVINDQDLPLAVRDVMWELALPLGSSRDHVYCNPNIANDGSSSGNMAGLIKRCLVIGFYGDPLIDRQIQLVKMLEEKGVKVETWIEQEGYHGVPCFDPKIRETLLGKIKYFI
From the text: as §1

CYP82X2 = molecular target: T3, CYP82X2 (UniProt D5J9U8+I3PLR0); assay: In vitro enzyme assay with yeast microsomal fractions containing CYP82X2 (CPR/82X2); format: biochemical, Papaver somniferum; conditions: yeast microsomes (CPR/82X2), extracted ion chromatograms, FIG. 13
T3 construct: the full-length coding regions of CYP82X1 and CYP82X2 were inserted into the NotI and SpeI restriction sites; FLAG; made in house; host or cells: Saccharomyces cerevisiae YPL 154C:Pep4, microsomal fraction
T3 sequence (D5J9U8+I3PLR0 with tags, fused parts or gaps): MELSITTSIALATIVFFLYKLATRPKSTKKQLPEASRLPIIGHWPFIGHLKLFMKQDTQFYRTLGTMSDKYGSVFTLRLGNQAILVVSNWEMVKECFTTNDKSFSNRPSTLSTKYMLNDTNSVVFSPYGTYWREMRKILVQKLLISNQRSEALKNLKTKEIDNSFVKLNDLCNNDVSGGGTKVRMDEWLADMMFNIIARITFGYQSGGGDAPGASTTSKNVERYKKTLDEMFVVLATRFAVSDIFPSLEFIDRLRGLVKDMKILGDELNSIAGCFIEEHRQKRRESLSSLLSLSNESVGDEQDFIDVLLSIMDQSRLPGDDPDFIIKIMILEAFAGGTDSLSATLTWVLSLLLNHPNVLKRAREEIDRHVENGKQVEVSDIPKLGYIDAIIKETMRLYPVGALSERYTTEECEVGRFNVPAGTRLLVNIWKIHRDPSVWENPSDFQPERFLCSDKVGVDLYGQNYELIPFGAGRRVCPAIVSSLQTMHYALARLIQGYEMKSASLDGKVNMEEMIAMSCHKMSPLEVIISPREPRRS
From the text: (§2) The full-length coding region of CYP82X1 was amplified using cDNA derived from total stem RNA of the Bea's Choice chemotype using Takara Ex Taq DNA polymerase (Fisher Scientific, Ottawa, Canada), and using a primer 5′-[…]-3′ (SEQ ID NO: 607) and reverse primer 5′-[…]-3′ (SEQ ID NO: 608). Owing to problems with heterologous expression in yeast, CYP82X2 was synthesized with the first 60 N-terminal amino acids replaced with the first 43 N-terminal amino acids from the lettuce cytochrome P450 germacrene A oxidase Nguyen, D. T. et al. J. Biol. Chem. 285, 16588-16598 (2010). For heterologous expression of Flag-tagged CYPs in yeast (Saccharomyces cerevisiae), the full-length coding regions of CYP82X1 and CYP82X2 were inserted into the NotI and SpeI restriction sites of the dual plasmid pESC-leu2d::CPR Ro, D.-K., Ouellet, M., Paradise, E. M., Burd, H., Eng, D., Paddon, C. J., Newman, J. D., & Keesling, J. D. BMC Biotech. 8, 83 (2008) yielding pESC-Leu2d::CYP82X1/CPR and pESC-Leu2d::CYP82X2/CPR. The protease-deficient yeast strain YPL 154C:Pep4 was transformed with pESC-Leu2d::CYP82X1/CPR and pESC-Leu2d::CYP82X2/CPR. Yeast culture, microsome preparation, and immunoblot analysis were performed as described previously Dang, T.-T. T. & Facchini, P. J. J. Biol. Chem. 289, 2013-2026 (2014). For heterologous expression of CXE1, CXE2, and AT1, corresponding open reading frames were amplified using cDNA derived from total stem RNA of the Bea's Choice chemotype and cloned in-frame an N-terminal His-tag sequence in the Escherichia coli expression vector pRSETA (Invitrogen, Carlsbad, Calif.). CXE1 and CXE2 were individually inserted into the SacI and HindIII restriction sties, whereas AT1 was inserted into the KpnI and HindIII sites, of pRSETA using a primer 5′-[…]-3′ (SEQ ID NO: 609) and reverse primer 5′-[…]-3′ (SEQ ID NO: 610). […] Microsomal fractions containing recombinant CYP82X1 or CYP82X2 were detected using a-FLAG antibodies, whereas recombinant CPR was detected using α-c-Myc antibodies (FIG. 12 A). […]

CYP82X1 = molecular target: T4, CYP82X1 (Papaver somniferum, UniProt I3V6B7); assay: In vitro enzyme assay with yeast microsomal fractions containing CYP82X1 (CPR/82X1); format: biochemical; conditions: yeast microsomes (CPR/82X1), extracted ion chromatograms, FIG. 13
T4 construct: The full-length coding region of CYP82X1 was amplified using cDNA derived from total stem RNA of the Bea's Choice chemotype; FLAG; made in house; host or cells: Saccharomyces cerevisiae YPL 154C:Pep4, microsomal fraction
T4 sequence (I3V6B7 1-540): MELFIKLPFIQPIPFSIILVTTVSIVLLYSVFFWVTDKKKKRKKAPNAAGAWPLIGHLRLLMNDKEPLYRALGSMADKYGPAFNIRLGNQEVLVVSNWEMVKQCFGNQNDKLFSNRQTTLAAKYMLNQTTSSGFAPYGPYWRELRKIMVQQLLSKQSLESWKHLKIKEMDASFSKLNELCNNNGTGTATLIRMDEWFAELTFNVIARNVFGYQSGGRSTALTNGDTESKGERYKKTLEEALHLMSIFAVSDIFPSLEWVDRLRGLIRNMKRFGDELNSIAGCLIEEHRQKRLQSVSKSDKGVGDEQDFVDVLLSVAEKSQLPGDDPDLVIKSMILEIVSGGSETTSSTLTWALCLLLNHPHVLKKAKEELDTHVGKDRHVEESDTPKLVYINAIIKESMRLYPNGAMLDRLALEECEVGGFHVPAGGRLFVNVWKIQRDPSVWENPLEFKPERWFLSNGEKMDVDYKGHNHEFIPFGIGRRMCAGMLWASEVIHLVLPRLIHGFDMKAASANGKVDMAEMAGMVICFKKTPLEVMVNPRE
From the text: as §2

AT1 = molecular target: T5, AT1 (Papaver somniferum, UniProt I3PLR4); assay: In vitro AT1 assay with purified recombinant protein; format: biochemical; conditions: native recombinant AT1, 50 μM acetyl-CoA, pH 8.0, 30° C., 15 min
T5 construct: corresponding open reading frames were amplified using cDNA derived from total stem RNA of the Bea's Choice chemotype; His-tag (pRSETA leader) (N); made in house; host or cells: Escherichia coli Rosetta (DE3) pLysS
T5 sequence (I3PLR4 1-471): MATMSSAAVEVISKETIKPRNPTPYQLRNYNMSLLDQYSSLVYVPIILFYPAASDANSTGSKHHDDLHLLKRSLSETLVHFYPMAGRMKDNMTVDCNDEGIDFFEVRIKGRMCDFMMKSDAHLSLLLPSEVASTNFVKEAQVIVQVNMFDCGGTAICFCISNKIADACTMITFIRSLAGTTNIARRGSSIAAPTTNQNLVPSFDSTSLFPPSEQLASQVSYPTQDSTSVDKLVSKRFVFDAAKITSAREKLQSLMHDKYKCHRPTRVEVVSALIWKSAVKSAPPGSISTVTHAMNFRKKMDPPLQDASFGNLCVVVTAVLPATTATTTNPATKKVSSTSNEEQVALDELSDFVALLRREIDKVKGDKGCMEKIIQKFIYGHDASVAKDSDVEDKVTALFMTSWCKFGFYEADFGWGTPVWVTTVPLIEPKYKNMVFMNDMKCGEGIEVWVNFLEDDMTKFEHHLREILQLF
From the text: as §1

Row | SMILES | conversion as substrate by CXE1 (CXE1) | conversion as substrate by CXE2 (CXE2) | conversion as substrate by CYP82X2 (CYP82X2) | conversion as substrate by CYP82X1 (CYP82X1) | conversion as substrate by AT1 (AT1)
1 | COc1ccc(C(OC(C)=O)C2c3c(cc4c(c3OC)OCO4)CCN2C)c(C=O)c1OC (centres unmarked) [3-O-acetylpapaveroxine] | yielding papaveroxine | form narcotine hemiacetal |  |  | 
2 | COc1ccc2c(c1OC)C[N+]1(C)CCc3cc4c(c(O)c3C1C2O)OCO4 [(S)-1,13-dihydroxy-N-methylcanadine] |  |  | No products were detected | No products were detected | forming (S)-1-hydroxy-13-O-acetyl-N-methylcanadine
